Measurements taken from US20220409620A1, “REDUCING IMMUNOGENICITY TO PEGLOTICASE” (Horizon Pharma Rheumatology LLC, priority 2016, published 2022).

System: adult patients with uncontrolled gout
Test: Serum uric acid (sUA) levels and sUA responder rate, open-label study of pegloticase with MTX (MIRROR OL)
Assay type: in vivo, human
Description: The primary objective is to estimate the response rate during Month 6 (Weeks 20, 22, and 24), as measured by the sustained normalization of serum uric acid (SUA) to <6 mg/dL for at least 80% of the time during Month 6 in subjects receiving KXX with MTX.
The primary efficacy outcome endpoint is the sustained normalization of SUA to <6 mg/dL for at least 80% of the time during month 6 (weeks 20, 22, and 24) in subjects receiving KXX with MTX. […] Participants who achieve this endpoint were classified as “responders.” Serum uric acid (SUA) responders may also be defined as participants achieving and maintaining SUA <6 mg/dL for at least 80% of the time during Month 6 (Weeks 20, 22, and 24).
Blood samples may be collected prior to each pegloticase infusion for measurement of SUA levels using the Beckman Coulter AU System Uric Acid procedure. Participants were declared “non-responders” if there were SUA measures >6 mg/dL at 2 consecutive study visits beginning with the week 2 visit. […] This assumption and subsequent discontinuation of pegloticase was consistent with the protocol of large phase III randomized controlled trials and the product label. A formal stopping rule was 2 occasions of SUA levels of greater than 6 mg/dL.
Clinical Chemistry—Blood samples were collected prior to each pegloticase infusion for measurement of SUA levels (primary efficacy parameter) using the Beckman Coulter AU System Uric Acid procedure. In this procedure uric acid is converted to hydrogen peroxide. Hydrogen peroxide reacts with reagent to produce a chromophore which is read bichromatically at 660/800 nm. The amount of dye formed is proportional to the uric acid concentration in the sample.
Serum samples for measurement of SUA levels were collected at the Screening Visit, the Week −4 Visit (prior to the first dose of MTX), and the Week −2 Visit during the MTX Run-in Period; within 48 hours prior to each pegloticase infusion and after the end of each pegloticase infusion prior to discharge from the site during the Pegloticase+IMM Period; at the non-infusion Week 52/End of Study/Early Termination Visits and at the Post Treatment 3 and 6 Month Follow-up Visits. Additional serum samples for SUA levels were collected at optional non-infusion (Frequent Sampling) Visits at Weeks 1 and 7. […] Subjects with SUA level >6 mg/dL at 2 consecutive visits beginning at Week 2 visit discontinued treatment, completed the End of Pegloticase Infusion Visit procedures within 2 weeks and continued the subject visits according to the protocol (without treatment).
Efficacy analyses were performed using the modified intention-to-treat (mITT) population, defined as all enrolled subjects who received ≥1 dose of pegloticase. The proportion of Month 6 responders was summarized, along with a 95% confidence interval for the proportion. The proportion of Month 3 and overall (Months 3 and 6 combined) responders was analyzed similarly.
A subject was declared a non-responder if the subject had SUA level >6 mg/dL at 2 consecutive study visits beginning with the Week 2 Visit. In addition, a subject who withdraws from study treatment for any reason after the first dose of pegloticase in the KXX+MTX Period and prior to Month 6 (for the primary endpoint) or Month 3 (for the secondary endpoint) was considered a non-responder if SUA values were not collected at the planned time points.
Patients were administered oral MTX (15 mg/week) and folate (1 mg/day) 4 weeks prior to the first pegloticase infusion (Day 1) and throughout the pegloticase treatment period. Blood was drawn prior to each infusion to measure sUA level, monitor clinical parameters, and examine for ADA development. All patients followed typical IR prophylaxis protocols (fexofenadine one day before and the morning of each infusion and acetaminophen and IV corticosteroid the morning of each infusion).

[1] = Day 1 - Post-Infusion, mITT Population
[2] = Early Termination Visit, mITT Population
[3] = End of Pegloticase Infusions Visit, mITT Population
[4] = Month 6 sUA Non-Responders, Day 1-Post-Infusion, n=3
[5] = Month 6 sUA Non-Responders, Early Termination Visit, n=3
[6] = Month 6 sUA Non-Responders, Week 1, n=2
[7] = Month 6 sUA Non-Responders, Week 2-Post-Infusion, n=3
[8] = Month 6 sUA Non-Responders, Week 2-Pre-Infusion, n=3
[9] = Month 6 sUA Non-Responders, Week 4-Pre-Infusion, n=3
[10] = Month 6 sUA Non-Responders, Week 8-Post-Infusion, n=1
[11] = Month 6 sUA Non-Responders, Week 8-Pre-Infusion, n=1
[12] = Month 6 sUA Non-Responders, Week 10-Pre-Infusion, n=1
[13] = Month 6 sUA Responders, Day 1-Post-Infusion, n=8

For pegloticase, the “Serum Uric Acid, Change from Baseline, Mean (SD)” value (shortened to “Serum Uric Acid, Change … (SD)”) [1] was −7.29 (2.254) mg/dL, the “Serum Uric Acid, Change from Baseline, Median” value [1] was -7.30 mg/dL and the “Serum Uric Acid, Observed, Mean (SD)” value [1] was 1.18 (1.417) mg/dL. The “Serum Uric Acid, Observed, Median” value [1] was 0.30 mg/dL, the “sUA <6 mg/dL, n (%)” value [1] was 11 (100%) and the “Serum Uric Acid, Change … (SD)” value [2] was −0.57 (0.635) mg/dL. The “Serum Uric Acid, Change from Baseline, Median” value [2] was -0.20 mg/dL, the “Serum Uric Acid, Observed, Mean (SD)” value [2] was 8.17 (0.058) mg/dL and the “Serum Uric Acid, Observed, Median” value [2] was 8.20 mg/dL. For the same substance, the “sUA <6 mg/dL, n (%)” value (Early Termination Visit, mITT Population, number of subjects (% not given)) was 0, the “Serum Uric Acid, Change … (SD)” value [3] was −8.50 (1.556) mg/dL and the “Serum Uric Acid, Change from Baseline, Median” value [3] was -8.50 mg/dL. For the same substance, the “Serum Uric Acid, Observed, Mean (SD)” value [3] was 0.30 (0.000) mg/dL, the “Serum Uric Acid, Observed, Median” value [3] was 0.30 mg/dL and the “sUA <6 mg/dL, n (%)” value [3] was 2 (100%). The “Serum Uric Acid, Change … (SD)” value [4] was −6.60 (2.848) mg/dL, the “Serum Uric Acid, Change from Baseline, Median” value [4] was -7.20 mg/dL and the “Serum Uric Acid, Observed, Mean (SD)” value [4] was 2.13 (2.438) mg/dL. The “Serum Uric Acid, Observed, Median” value [4] was 1.20 mg/dL, the “sUA <6 mg/dL, n (%)” value [4] was 3 (100%) and the “Serum Uric Acid, Change … (SD)” value [5] was −0.57 (0.635) mg/dL. For the same substance, the “Serum Uric Acid, Change from Baseline, Median” value [5] was -0.20 mg/dL, the “Serum Uric Acid, Observed, Mean (SD)” value [5] was 8.17 (0.058) mg/dL and the “Serum Uric Acid, Observed, Median” value [5] was 8.20 mg/dL. The “sUA <6 mg/dL, n (%)” value [5] was 0%, the “Serum Uric Acid, Change … (SD)” value [6] was −8.10 (0.000) mg/dL and the “Serum Uric Acid, Change from Baseline, Median” value [6] was -8.10 mg/dL. The “Serum Uric Acid, Observed, Mean (SD)” value [6] was 0.30 (0.000) mg/dL, the “Serum Uric Acid, Observed, Median” value [6] was 0.30 mg/dL and the “sUA <6 mg/dL, n (%)” value [6] was 2 (100%). The “Serum Uric Acid, Change … (SD)” value [7] was −8.43 (0.577) mg/dL, the “Serum Uric Acid, Change from Baseline, Median” value [7] was -8.10 mg/dL and the “Serum Uric Acid, Observed, Mean (SD)” value [7] was 0.30 (0.000) mg/dL. The “Serum Uric Acid, Observed, Median” value [7] was 0.30 mg/dL, the “sUA <6 mg/dL, n (%)” value [7] was 3 (100%) and the “Serum Uric Acid, Change … (SD)” value [8] was −5.17 (4.225) mg/dL. The “Serum Uric Acid, Change from Baseline, Median” value [8] was -5.70 mg/dL, the “Serum Uric Acid, Observed, Mean (SD)” value [8] was 3.57 (3.775) mg/dL and the “Serum Uric Acid, Observed, Median” value [8] was 2.70 mg/dL. The “sUA <6 mg/dL, n (%)” value [8] was 2 (66.7%), the “Serum Uric Acid, Change … (SD)” value [9] was −3.70 (4.744) mg/dL and the “Serum Uric Acid, Change from Baseline, Median” value [9] was -1.80 mg/dL. For the same substance, the “Serum Uric Acid, Observed, Mean (SD)” value [9] was 5.03 (4.177) mg/dL, the “Serum Uric Acid, Observed, Median” value [9] was 6.60 mg/dL and the “Serum Uric Acid, Change … (SD)” value [10] was −9.10 (NE) mg/dL. For the same substance, the “Serum Uric Acid, Change from Baseline, Median” value [10] was -9.10 mg/dL, the “Serum Uric Acid, Observed, Mean (SD)” value [10] was 0.30 (NE) mg/dL and the “Serum Uric Acid, Observed, Median” value [10] was 0.30 mg/dL. The “sUA <6 mg/dL, n (%)” value [10] was 1 (100%), the “Serum Uric Acid, Change … (SD)” value [11] was −0.50 (NE) mg/dL and the “Serum Uric Acid, Change from Baseline, Median” value [11] was -0.50 mg/dL. For the same substance, the “Serum Uric Acid, Observed, Mean (SD)” value [11] was 8.90 (NE) mg/dL, the “Serum Uric Acid, Observed, Median” value [11] was 8.90 mg/dL and the “sUA <6 mg/dL, n (%)” value [11] was 0%. For the same substance, the “Serum Uric Acid, Change … (SD)” value [12] was −1.30 (NE) mg/dL, the “Serum Uric Acid, Change from Baseline, Median” value [12] was -1.30 mg/dL and the “Serum Uric Acid, Observed, Mean (SD)” value [12] was 8.10 (NE) mg/dL. The “Serum Uric Acid, Observed, Median” value [12] was 8.10 mg/dL, the “sUA <6 mg/dL, n (%)” value [12] was 0% and the “Serum Uric Acid, Change … (SD)” value [13] was −7.55 (2.158) mg/dL. The “Serum Uric Acid, Change from Baseline, Median” value [13] was -7.50 mg/dL and the “Serum Uric Acid, Observed, Mean (SD)” value [13] was 0.83 (0.798) mg/dL.
